Measured values published in US8481531B2, “Bicyclic heterocyclyl derivatives as FGFR kinase inhibitors for therapeutic use” (Astex Therapeutics Ltd, priority 2009, dated 2013).

Columns and labels:
VEGFR2 = target: T1, VEGFR2 (Homo sapiens, UniProt P35968); experiment: VEGFR2 in vitro kinase inhibitory activity assay (TRF); assay type: biochemical; settings: 0.5 μM ATP, 1 hour; read-out: VEGFR2 IC50(μM) or % I
T1 construct: purchased Upstate
Protocol: (§1) FGFR3, VEGFR2 and PDGFR in vitro Kinase Inhibitory Activity Assays
(§2) Enzymes (from Upstate), prepared at 2× final concentration, were incubated with test compounds, biotinylated Flt3 substrate (biotin-VASSDNEYFYVDF) (Cell Signalling Technology Inc.) and ATP in the appropriate assay buffer (Table 1). The reaction was allowed to proceed for 3 hours (FGFR3), 1 hour (VEGFR2, PDGFR-beta) at room temperature on a plate shaker at 700 rpm before being stopped with 35 mM EDTA, pH 8 (FGFR3, VEGFR2) or 55 mM EDTA, pH 8 (PDGFR-beta). 5× detection mix (50 mM HEPES pH 7.5, 0.1% BSA, 11.34 nM Eu-anti-pY (PY20) (PerkinElmer) 74 nM SA-XL665 (Cisbio) for FGFR3, 50 mM HEPES, pH 7.5, 0.1% BSA, 11.34 nM Eu-anti-pY (PY20), 187.5 nM SA-XL665 for VEGFR2 and 50 mM HEPES, pH 7.5, 0.1% BSA, 11.34 nM Eu-anti-pY (PT66) (PerkinElmer), 375 nM SA-XL665 (Cisbio) for PDGFR-beta) was then added to each well and the plate sealed and incubated at room temperature for one hour on a plate shaker at 700 rpm. The plate was then read on a Packard Fusion plate reader or a BMG Pherastar both in TRF mode.

FGFR3 = target: T2, FGFR3 (Homo sapiens, UniProt P22607); experiment: FGFR3 in vitro kinase inhibitory activity assay (TRF); assay type: biochemical; settings: 8 μM ATP, 3 hours; read-out: FGFR3 IC50(μM) or % I
T2 construct: purchased Upstate
T2 sequence (P22607 23-806): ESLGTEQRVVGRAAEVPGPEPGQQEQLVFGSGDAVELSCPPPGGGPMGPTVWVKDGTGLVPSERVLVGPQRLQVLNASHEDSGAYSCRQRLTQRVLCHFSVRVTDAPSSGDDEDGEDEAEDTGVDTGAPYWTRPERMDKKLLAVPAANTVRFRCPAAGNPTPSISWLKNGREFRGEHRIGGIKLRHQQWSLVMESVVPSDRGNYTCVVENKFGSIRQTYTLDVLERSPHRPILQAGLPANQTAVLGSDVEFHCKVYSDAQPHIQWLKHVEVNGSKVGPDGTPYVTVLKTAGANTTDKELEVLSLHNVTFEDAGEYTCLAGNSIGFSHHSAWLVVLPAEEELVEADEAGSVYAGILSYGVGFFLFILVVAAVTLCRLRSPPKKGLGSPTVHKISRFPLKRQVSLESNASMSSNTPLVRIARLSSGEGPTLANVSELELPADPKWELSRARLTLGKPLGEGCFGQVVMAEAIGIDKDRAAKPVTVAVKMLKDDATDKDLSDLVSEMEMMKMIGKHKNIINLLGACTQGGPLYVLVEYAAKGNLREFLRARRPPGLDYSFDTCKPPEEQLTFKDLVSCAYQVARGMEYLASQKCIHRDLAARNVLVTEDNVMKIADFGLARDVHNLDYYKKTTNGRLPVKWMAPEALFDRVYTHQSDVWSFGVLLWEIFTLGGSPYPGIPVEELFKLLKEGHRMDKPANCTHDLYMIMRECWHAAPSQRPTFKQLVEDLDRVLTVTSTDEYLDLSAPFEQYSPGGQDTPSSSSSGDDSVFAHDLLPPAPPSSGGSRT
Protocol: as §1, §2

[1] = system: parental wild-type Ba/F3 cells; experiment: Ba/F3 (WT) cell proliferation assay (Alamar Blue); assay type: cell-based; settings: BaF3, 72 hours, read-out: BaF3 WT prolif; for IC50: with mouse IL-3
Protocol: (§3) Ba/F3-TEL-FGFR3 & Ba/F3 (WT) Cell Proliferation Assays
(§4) Stably transfected Ba/F3-TEL-FGFR3 cells were plated out into black 96-well tissue culture plates with clear bottoms in RPMI medium containing 10% FBS and 0.25 mg/ml G418 at a density of 5×10^3 cells/well (200 μl per well). The parental wild-type Ba/F3 cells (DSMZ no.: ACC 300) were plated out into black 96-well tissue culture plates with clear bottoms in RPMI medium containing 10% FBS and 2 ng/ml mouse IL-3 (R&D Systems) at a density of 2.5×10^3 cells/well (200 μl per well). Plates were placed in an incubator overnight before adding the compounds the following day. Dilutions of compounds were made in DMSO starting at 10 mM and were diluted into the wells to give a final DMSO concentration of 0.1% in assay. Compounds were left on the cells for 72 hours before the plates were removed from the incubator and 20 μl of Alamar Blue™ (Biosource) was added to each well. Plates were placed in the incubator for 4-6 hours before reading plates at 535 nm (excitation)/590 nm (emission) on a Fusion plate reader (Packard). Where inhibition is high an IC50 can be determined.

Ba/F3-TEL-FGFR3 cells = target: T3, Ba/F3-TEL-FGFR3 cells (Homo sapiens, UniProt P22607); experiment: Ba/F3-TEL-FGFR3 cell proliferation assay (Alamar Blue); assay type: cell-based; settings: 72 hours; for BaF3-TEL-FGFR3 prolif (μM): % at 10.0 μM; for GI50: read-out: BaF3-TEL-FGFR3 prolif
T3 construct: fused on or other part: P41212 (Transcription factor ETV6)
T3 sequence (P22607 whole entry, change not shown, the tested form may be a part): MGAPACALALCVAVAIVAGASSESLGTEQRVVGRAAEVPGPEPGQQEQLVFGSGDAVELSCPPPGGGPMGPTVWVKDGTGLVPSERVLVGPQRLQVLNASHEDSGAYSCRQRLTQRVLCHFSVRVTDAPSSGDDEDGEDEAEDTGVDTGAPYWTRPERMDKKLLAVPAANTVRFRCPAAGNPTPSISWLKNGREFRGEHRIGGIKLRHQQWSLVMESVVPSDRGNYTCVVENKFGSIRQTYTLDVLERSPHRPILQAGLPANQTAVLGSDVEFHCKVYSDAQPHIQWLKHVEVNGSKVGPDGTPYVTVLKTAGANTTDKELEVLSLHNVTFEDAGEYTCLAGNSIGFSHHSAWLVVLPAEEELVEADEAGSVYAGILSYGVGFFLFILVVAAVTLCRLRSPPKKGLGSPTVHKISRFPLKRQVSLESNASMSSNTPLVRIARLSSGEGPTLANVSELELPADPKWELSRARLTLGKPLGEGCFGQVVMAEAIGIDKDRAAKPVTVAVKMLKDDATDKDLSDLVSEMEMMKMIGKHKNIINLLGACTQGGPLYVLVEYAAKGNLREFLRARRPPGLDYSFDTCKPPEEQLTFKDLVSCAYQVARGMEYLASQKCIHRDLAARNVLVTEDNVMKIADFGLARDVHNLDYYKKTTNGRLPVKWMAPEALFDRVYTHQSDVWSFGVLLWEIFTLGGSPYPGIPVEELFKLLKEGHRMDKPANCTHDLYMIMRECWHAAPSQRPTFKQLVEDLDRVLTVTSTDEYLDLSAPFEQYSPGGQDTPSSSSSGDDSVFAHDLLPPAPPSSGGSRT
Protocol: as §3, §4

T1 sequence (P35968 20-1356): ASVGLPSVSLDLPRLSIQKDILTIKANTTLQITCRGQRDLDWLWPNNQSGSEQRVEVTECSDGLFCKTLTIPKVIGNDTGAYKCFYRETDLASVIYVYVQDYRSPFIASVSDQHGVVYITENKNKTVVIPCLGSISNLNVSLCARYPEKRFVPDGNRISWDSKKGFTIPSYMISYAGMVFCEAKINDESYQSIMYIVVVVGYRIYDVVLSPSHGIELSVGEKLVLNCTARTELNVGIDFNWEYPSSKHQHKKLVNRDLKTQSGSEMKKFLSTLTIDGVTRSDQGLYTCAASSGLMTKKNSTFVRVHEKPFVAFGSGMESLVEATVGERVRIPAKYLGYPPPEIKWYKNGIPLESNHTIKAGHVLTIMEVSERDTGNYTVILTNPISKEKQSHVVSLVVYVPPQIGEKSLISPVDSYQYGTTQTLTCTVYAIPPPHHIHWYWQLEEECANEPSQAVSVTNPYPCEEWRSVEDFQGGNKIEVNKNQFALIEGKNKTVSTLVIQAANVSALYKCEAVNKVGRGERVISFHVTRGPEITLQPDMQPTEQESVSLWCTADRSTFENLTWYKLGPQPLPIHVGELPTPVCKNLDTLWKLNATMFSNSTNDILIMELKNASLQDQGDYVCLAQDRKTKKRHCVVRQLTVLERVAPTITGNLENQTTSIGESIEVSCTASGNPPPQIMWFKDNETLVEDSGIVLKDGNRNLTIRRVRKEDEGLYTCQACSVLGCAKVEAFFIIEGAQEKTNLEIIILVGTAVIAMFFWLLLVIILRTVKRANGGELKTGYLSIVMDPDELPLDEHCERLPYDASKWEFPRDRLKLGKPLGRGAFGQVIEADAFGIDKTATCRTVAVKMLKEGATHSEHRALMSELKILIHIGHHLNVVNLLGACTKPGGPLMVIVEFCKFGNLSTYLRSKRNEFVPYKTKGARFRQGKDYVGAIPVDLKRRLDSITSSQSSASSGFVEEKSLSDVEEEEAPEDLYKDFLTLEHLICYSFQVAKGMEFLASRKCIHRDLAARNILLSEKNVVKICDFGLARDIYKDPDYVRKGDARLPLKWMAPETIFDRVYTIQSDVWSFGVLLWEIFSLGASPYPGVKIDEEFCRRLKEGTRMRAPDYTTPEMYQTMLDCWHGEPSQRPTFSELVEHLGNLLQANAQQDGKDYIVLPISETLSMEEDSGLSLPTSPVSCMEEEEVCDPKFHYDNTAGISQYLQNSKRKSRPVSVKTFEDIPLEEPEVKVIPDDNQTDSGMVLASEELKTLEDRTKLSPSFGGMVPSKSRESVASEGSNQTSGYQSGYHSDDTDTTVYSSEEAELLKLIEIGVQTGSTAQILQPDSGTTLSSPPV

IC50 (VEGFR2) | IC50 (FGFR3) | BaF3-TEL-FGFR3 prolif (μM) (Ba/F3-TEL-FGFR3 cells) | GI50 (Ba/F3-TEL-FGFR3 cells) | SMILES | inhibition at 10 µM ([1]; Mus musculus) | IC50 [1] | inhibition at 3 µM ([1]; Mus musculus) | inhibition at 1 µM ([1]; Mus musculus, % at 1.00 μM)
0.29 µM | 0.019 µM | 43.0% at | – | O=C(NCC(F)(F)F)Nc1cccc(-c2cnc3cc(C(CC4CC4)=NO)ccn23)c1 [Compound 1-30, 1-[3-(7-{2-Cyclopropyl-1-hydroxyimino-ethyl}-imidazo[1,2-a]pyridin-3-yl)-phenyl]-3-(2,2,2-trifluoro-ethyl)-urea] | 20% | – | – | –
0.18 µM | 0.018 µM | – | 250 nM | O=C(NCC(F)(F)F)Nc1cccc(-c2cnc3cc(/C(=N\OCCO)C4CC4)ccn23)c1 [Compound 1-33, 1-[3-(7-{Cyclopropyl-[2-hydroxy-ethoxyimino]-methyl}-imidazo[1,2-a]pyridin-3-yl)-phenyl]-3-(2,2,2-trifluoro-ethyl)-urea] | – | 11000 nM | – | –
0.62 µM | 0.021 µM | – | 500 nM | O=C(NCC(F)(F)F)Nc1cccc(-c2cnc3cc(C=NOCCO)ccn23)c1 [Compound 1-54, 1-(3-{7-[(2-Hydroxy-ethoxyimino)-methyl]-imidazo[1,2-a]pyridin-3-yl}-phenyl)-3-(2,2,2-trifluoro-ethyl)-urea] | – | 510 nM | – | –
0.33 µM | 0.022 µM | – | 570 nM | O=C(NCC(F)(F)F)Nc1cccc(-c2cnc3cc(C(=NO)C4CCC4)ccn23)c1 [Compound 1-28, 1-[3-(7-{Cyclobutyl-hydroxyimino-methyl}-imidazo[1,2-a]pyridin-3-yl)-phenyl]-3-(2,2,2-trifluoro-ethyl)-urea] | – | – | 43% | –
0.584 µM | 0.0185 µM | – | 420 nM | O=C(NCC(F)(F)F)Nc1cccc(-c2cnc3cc(C=NOCCOCCO)ccn23)c1 [Compound 1-7, 1-[3-(7-{[2-(2-Hydroxy-ethoxy)-ethoxyimino]-methyl}-imidazo[1,2-a]pyridin-3-yl)-phenyl]-3-(2,2,2-trifluoro-ethyl)-urea] | – | – | 20% | –
0.39 µM | 0.025 µM | – | 1300 nM | O=C(NCC(F)(F)F)Nc1cccc(-c2cnc3cc(C=NOCCCN4CCN(CCO)CC4)ccn23)c1 [Compound 1-39, 1-{3-[7-({3-[4-(2-Hydroxy-ethyl)-piperazin-1-yl]-propoxyimino}-methyl)-imidazo[1,2-a]pyridin-3-yl]-phenyl}-3-(2,2,2-trifluoro-ethyl)-urea] | – | – | 47% | –
0.083 µM | 0.0045 µM | – | 120 nM | CCC(=NO)c1ccn2c(-c3cccc(NC(=O)NCC(F)(F)F)c3)cnc2c1 [Compound 1-26, 1-[3-(7-{1-Hydroxyimino-propyl}-imidazo[1,2-a]pyridin-3-yl)-phenyl]-3-(2,2,2-trifluoro-ethyl)-urea] | 40% | – | – | –
0.885 µM | 0.019 µM | – | 290 nM | COCCOCCON=Cc1ccn2c(-c3cccc(NC(=O)NCC(F)(F)F)c3)cnc2c1 [Compound 1-2, 1-[3-(7-{[2-(2-Methoxy-ethoxy)-ethoxyimino]-methyl}-imidazo[1,2-a]pyridin-3-yl)-phenyl]-3-(2,2,2-trifluoro-ethyl)-urea] | – | 1600 nM | – | –
> 10 µM | 0.215 µM | – | 17.5 nM | O=C(NCC(F)(F)F)Nc1cccc(-c2cnc3cc(C=NOCc4ccc(Cl)s4)ccn23)c1 [Compound 1-8, 1-(3-{7-[(5-Chloro-thiophen-2-ylmethoxyimino)-methyl]-imidazo[1,2-a]pyridin-3-yl}-phenyl)-3-(2,2,2-trifluoro-ethyl)-urea] | – | 828 nM | – | –
0.38 µM | 0.0077 µM | – | 140 nM | O=C(NCC(F)(F)F)Nc1cccc(-c2cnc3cc(C=NOCc4cccnc4)ccn23)c1 [Compound 1-55, 1-(3-{7-[(Pyridin-3-ylmethoxyimino)-methyl]-imidazo[1,2-a]pyridin-3-yl}-phenyl)-3-(2,2,2-trifluoro-ethyl)-urea] | – | – | 51% | –
0.27 µM | 0.019 µM | – | 140 nM | CN1CCC(ON=Cc2ccn3c(-c4cccc(NC(=O)NCC(F)(F)F)c4)cnc3c2)CC1 [Compound 1-10, 1-(3-{7-[(1-Methyl-piperidin-4-yloxyimino)-methyl]-imidazo[1,2-a]pyridin-3-yl}-phenyl)-3-(2,2,2-trifluoro-ethyl)-urea] | – | 2800 nM | – | –
0.4 µM | 0.019 µM | – | 240 nM | O=C(NCC(F)(F)F)Nc1cccc(-c2cnc3cc(/C=N/OCCCO)ccn23)c1 [Compound 1-18, 1-(3-{7-[(3-Hydroxy-propoxyimino)-methyl]-imidazo[1,2-a]pyridin-3-yl}-phenyl)-3-(2,2,2-trifluoro-ethyl)-urea] | – | 4700 nM | – | –
0.051 µM | 0.0023 µM | 0.000% at | – | C/C(=N\OCCCO)c1ccn2c(-c3cccc(NC(=O)NCC(F)(F)F)c3)cnc2c1 [Compound 1-47, 1-[3-(7-{1-[3-Hydroxy-propoxyimino]-ethyl}-imidazo[1,2-a]pyridin-3-yl)-phenyl]-3-(2,2,2-trifluoro-ethyl)-urea] | 63% | – | – | –
0.24 µM | 0.011 µM | – | 320 nM | CCC(=NOC)c1ccn2c(-c3cccc(NC(=O)NCC(F)(F)F)c3)cnc2c1 [Compound 1-25, 1-[3-(7-{1-Methoxyimino-propyl}-imidazo[1,2-a]pyridin-3-yl)-phenyl]-3-(2,2,2-trifluoro-ethyl)-urea] | – | – | 46% | –
0.66 µM | 0.03 µM | – | 300 nM | Cc1cc(CON=Cc2ccn3c(-c4cccc(NC(=O)NCC(F)(F)F)c4)cnc3c2)n(C)n1 [Compound 1-13, 1-(3-{7-[(2,5-Dimethyl-2H-pyrazol-3-ylmethoxyimino)-methyl]-imidazo[1,2-a]pyridin-3-yl}-phenyl)-3-(2,2,2-trifluoro-ethyl)-urea] | – | – | – | 46%
0.98 µM | 0.026 µM | – | 43 nM | O=C(NCC(F)(F)F)Nc1cccc(-c2cnc3cc(C=NOCc4ccco4)ccn23)c1 [Compound 1-15, 1-(3-{7-[(Furan-2-ylmethoxyimino)-methyl]-imidazo[1,2-a]pyridin-3-yl}-phenyl)-3-(2,2,2-trifluoro-ethyl)-urea] | – | 4600 nM | – | –
0.61 µM | 0.018 µM | – | 1300 nM | Nc1nc(CON=Cc2ccn3c(-c4cccc(NC(=O)NCC(F)(F)F)c4)cnc3c2)cs1 [Compound 1-16, 1-(3-{7-[(2-Amino-thiazol-4-ylmethoxyimino)-methyl]-imidazo[1,2-a]pyridin-3-yl}-phenyl)-3-(2,2,2-trifluoro-ethyl)-urea] | 19% | – | – | –
0.635 µM | 0.0194 µM | – | 210 nM | COCCON=Cc1ccn2c(-c3cccc(NC(=O)NCC(F)(F)F)c3)cnc2c1 [Compound 1-1, 1-(3-{7-[(2-Methoxy-ethoxyimino)-methyl]-imidazo[1,2-a]pyridin-3-yl}-phenyl)-3-(2,2,2-trifluoro-ethyl)-urea] | – | 310 nM | – | –
0.26 µM | 0.038 µM | 60.0% at | – | CN1CCC(NCCCON=Cc2ccn3c(-c4cccc(NC(=O)NCC(F)(F)F)c4)cnc3c2)CC1 [Compound 1-34, 1-[3-(7-{[3-(1-Methyl-piperidin-4-ylamino)-propoxyimino]-methyl}-imidazo[1,2-a]pyridin-3-yl)-phenyl]-3-(2,2,2-trifluoro-ethyl)-urea] | 0% | – | – | –
